Changes are numbered by the printed parent chain.
Columns and labels:
[1] = target: T1, full-length HMGB1 (Homo sapiens, UniProt P09429); experiment: WaterLOGSY NMR with HMGB1; assay type: binding; conditions: 6 mM SA or 5 mM ac3AESA, 20 μM protein
T1 construct: (i) full length: residues 2-215; hexaHis (TEV-cleavable) (N, cleaved yes); made in house
T1 sequence (P09429 2-215): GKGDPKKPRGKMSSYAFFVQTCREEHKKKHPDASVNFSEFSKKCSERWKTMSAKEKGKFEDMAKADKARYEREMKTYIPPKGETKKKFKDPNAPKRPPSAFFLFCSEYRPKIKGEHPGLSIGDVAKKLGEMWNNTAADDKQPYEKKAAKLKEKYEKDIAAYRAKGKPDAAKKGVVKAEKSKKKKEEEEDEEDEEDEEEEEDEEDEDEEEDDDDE
Excerpt: (§1) NMR can be used to detect protein ligand interactions either by protein-detected experiments (Lepre, Moore et al. 2004), detecting changes in the frequencies of resonances of the protein sample due to ligand binding (protein-detected chemical shift perturbation (CSP) experiments), or by ligand-detected experiments (Lepre, Moore et al. 2004), in which NMR properties of the ligands due to ligand-protein interactions are detected. Protein-detected ligand binding experiments are usually done using isotope-enriched protein samples which can be studied by isotope-filtered NMR experiments, including for example ^15N-^1H-HSQC (Kay, Keifer et al. 1992). Ligand-detected experiments include the Waterlogsy experiment (Meyer and Peters 2003, Lepre, Moore et al. 2004, Furihata, Shimotakahara et al. 2008), which detects interactions in the ternary complex formed by the protein, the ligand, and one or more water molecules, and the Saturation Transfer Difference (STD) NMR experiments (Mayer and Meyer 2001, Lepre, Moore et al. 2004, Wang, Liu et al. 2004), which detects magnetization transfer from the protein to the ligand in the protein-ligand complex. The Waterlogsy experiment is a more sensitive experiment, typically employed to detect qualitatively if there is an interaction between protein and ligand. […]

[2] = target: T1, full-length HMGB1; experiment: Saturation transfer difference (STD) NMR; assay type: binding
Excerpt: as §1

[3] = after intake of 500 mg of aspirin; cited from earlier work
[4] = target: T2, full-length (FL) R24A/K28A HMGB1 (Homo sapiens, UniProt P09429, K28A/R24A); experiment: 15N-1H HSQC NMR binding to R24A/K28A HMGB1; conditions: ~0.1 mM protein; 15 mM SA, 3 mM ac3AESA or 3 mM amorfrutin B1
T2 construct: (i) full length: residues 2-215; made in house
T2 sequence (P09429 2-215 R24A/K28A): T1 sequence (P09429 2-215) with R23A, K27A
Experimental: […] Samples were analyzed with and without SA or other candidate inhibitors at 25° C. Chemical shift perturbation studies were carried out using either a Bruker Avance 800 MHz Avance NMR system with 4-mm NMR tubes, or using a Bruker Avance 600 MHz NMR spectrometer equipped with a 1.7 mm micro cryoprobe. 1024 or 2048 complex points were acquired for each of 80 to 200 increments in the ^15N dimension with a recycle delay of 1 s. Each spectrum was typically acquired for 2-8 hrs. Chemical shift assignments were determined using a uniformly ^13C,^15N-enriched HMGB1-ΔC construct at 25° C. via traditional triple-resonance NMR experiments (Biamonti et al., 1994; Moseley et al., 2001) recorded on a Bruker 800 MHz NMR spectrometer equipped with a 5 mm cryoprobe. Disulfide oxidation studies were carried out using the ^15N-^1H SOFAST-HMQC NMR experiment (Schanda & Brutscher, 2005; Schanda et al., 2005; Zandarashvili et al., 2013).
An alternative explanation is that SA, at low concentrations, affects another factor in vivo, which results indirectly in suppression of HMGB1^RE-induced chemotaxis. […] Therefore, these residues were mutated to Ala to form the double mutant Arg24Ala/Lys28Ala (R24A/K28A).

[5] = tested on: Pep1; experiment: Callose staining: Pep1-induced callose deposition in Arabidopsis leaves; assay type: in vivo, Arabidopsis thaliana; conditions: 100 nM Pep1, 15 h
Experimental: Arabidopsis leaves were collected 15 h after infiltration with 100 nM AtHMGB3 or 100 nM Pep1, and then immediately immersed in alcoholic lactophenol (phenol:glycerol:lactic acid:water:ethanol=1:1:1:1:8) to destain the chlorophyll. To remove the background fluorescence, destained leaves were treated with toluidine blue O solution (0.05% toluidine blue O, 0.1 M sodium acetate, pH 4.4) for 30 min, and then rinsed twice with 150 mM K2HPO4 (pH 9.5). Callose was stained with aniline blue solution (0.02% aniline blue, 150 mM K2HPO4, pH 9.5) for 30 min in the absence of light. The aniline blue-stained leaves were mounted with 25% glycerol and analyzed using a Leica DM5500 epifluorescence microscope. The number of callose loci was quantified using an ImageJ (NIH).

[6] = tested on: LPS-induced expression of COX-2, IL-6 and TNFα; experiment: LPS-induced cytokine and COX-2 gene expression in human macrophages (qPCR); assay type: cell-based; conditions: 10 ng/ml LPS, 100 μM SA or 1 μM ac3AESA
Experimental: Human HeLa cells were grown in T75 flasks in DMEM medium supplemented with penicillin (10,000 IU/mL) streptomycin ([…]), and 10% fetal calf serum. Ptgs2−/− MEFs were derived from Ptgs2−/− E16 mouse embryos, obtained from the mating of Ptgs2+/− mice purchased from Taconic Biosciences. PBMCs were isolated from buffy coats of donor blood (Hospital of Magenta, Milan, Italy) by Ficoll gradient centrifugation (Lymphoprep; AXIS-SHIELD. CD14+ monocytes were isolated by positive immunoselection (CD14 Microbeads; Miltenyi Biotec) according to the manufacturer's instructions, and differentiated into macrophages using X-Vivo medium supplemented with 1% heat inactivated human serum, GM-CSF, and M-CSF.
Total RNAs were isolated using the Illustra RNAspin Mini kit (GE Healthcare), and complementary DNA (cDNA) was obtained by retro-transcription with oligo(dT) primers (Invitrogen, Carlsbad, Calif., USA) and SuperScript II Reverse Transcriptase (Invitrogen) following the manufacturers' instructions. Quantitative real-time PCR was performed using a LightCycler480 (Roche Molecular Diagnostics), in duplicates, using SYBR Green I master mix and the oligonucleotides listed in Table of primers below. The ΔCt method was used for quantification, and the β-actin gene was used for normalization.

O=C(O)c1ccccc1O [SA, salicylic acid]
WaterLOGSY binding to HMGB1 [1]: binds
STD signal for binding to full-length HMGB1 ([2]; 20 μM HMGB1, pH 7.4, SA 6 mM, ac3AESA 0.6-5.8 mM): no STD signal is detected
ligand concentration at which an STD effect for HMGB1 binding is seen ([2]; 20 μM HMGB1, SA tested as high as 6 mM): no STD effect
time to reach the stated SA plasma concentration [3]: ≤ 1 h
binding to R24A/K28A HMGB1 (CSPs in HSQC) [4]: does not bind
effect on Pep1-induced callose deposition [5]: unaffected
effect on LPS-induced expression of cytokine and COX-2 genes [6]: did not suppress

Source: patent US20180045715A1, “STRUCTURE AND FUNCTION OF THE SALICYCLIC ACID BINDING SITES ON HUMAN HMGB1 AND METHODS OF USE THEREOF FOR THE RATIONAL DESIGN OF BOTH SALICYCLIC ACID DERIVATIVES AND OTHER AGENTS THAT ALTER ANIMAL AND PLANT HMGBS ACTIVITIES” (Boyce Thompson Institute for Plant Research, Inc., priority 2015, published 2018)
